Activity calls are given as the source filed them. The calls are words filed in the database; no cut-off is given here.
Experiments:
HCT-116 [1] = assay: Antiproliferative activity against IC50 biaryl selected human HCT116 cells expressing Kinesin-like protein KIF11 D130V mutant after 72 hrs by Cell titer Glo assay; assay type: functional, cell-based; conditions: HCT-116, 72 h
HCT-116 [2] = assay: Antiproliferative activity against IC95 biaryl selected drug-resistant against human HCT116 cells after 72 hrs by Cell titer Glo assay; assay type: functional, cell-based; conditions: HCT-116, 72 h
HCT-116 [3] = assay: Antiproliferative activity against human HCT116 cells expressing Kinesin-like protein KIF11 D130V mutant after 72 hrs by Cell titer Glo assay; assay type: functional, cell-based; conditions: HCT-116, 72 h
HCT-116 [4] = assay: Antiproliferative activity against IC95 biaryl selected human HCT116 cells expressing Kinesin-like protein KIF11 D130V mutant after 72 hrs by Cell titer Glo assay; assay type: functional, cell-based; conditions: HCT-116, 72 h
HCT-116 [5] = assay: Antiproliferative activity against IC50 biaryl selected drug-resistant against human HCT116 cells after 72 hrs by Cell titer Glo assay; assay type: functional, cell-based; conditions: HCT-116, 72 h
HCT-116 [6] = assay: Antiproliferative activity against human HCT116 cells after 72 hrs by Cell titer Glo assay; assay type: functional, cell-based; conditions: HCT-116, 72 h
HCT-116 [7] = assay: Antiproliferative activity against 3x IC95 biaryl selected human HCT116 cells expressing Kinesin-like protein KIF11 D130V mutant after 72 hrs by Cell titer Glo assay; assay type: functional, cell-based; conditions: HCT-116, 72 h
HCT-116 [8] = assay: Antiproliferative activity against 3x IC95 biaryl selected drug-resistant against human HCT116 cells after 72 hrs by Cell titer Glo assay; assay type: functional, cell-based; conditions: HCT-116, 72 h
[9] = biological target: T1, Kinesin-like protein KIF11 (Homo sapiens, UniProt P52732); assay: Inhibition of human wild type Eg5 using varying ATP levels in presence of saturating levels of microtubule by Lineweaver-Burke plot
T1 sequence (P52732 whole entry): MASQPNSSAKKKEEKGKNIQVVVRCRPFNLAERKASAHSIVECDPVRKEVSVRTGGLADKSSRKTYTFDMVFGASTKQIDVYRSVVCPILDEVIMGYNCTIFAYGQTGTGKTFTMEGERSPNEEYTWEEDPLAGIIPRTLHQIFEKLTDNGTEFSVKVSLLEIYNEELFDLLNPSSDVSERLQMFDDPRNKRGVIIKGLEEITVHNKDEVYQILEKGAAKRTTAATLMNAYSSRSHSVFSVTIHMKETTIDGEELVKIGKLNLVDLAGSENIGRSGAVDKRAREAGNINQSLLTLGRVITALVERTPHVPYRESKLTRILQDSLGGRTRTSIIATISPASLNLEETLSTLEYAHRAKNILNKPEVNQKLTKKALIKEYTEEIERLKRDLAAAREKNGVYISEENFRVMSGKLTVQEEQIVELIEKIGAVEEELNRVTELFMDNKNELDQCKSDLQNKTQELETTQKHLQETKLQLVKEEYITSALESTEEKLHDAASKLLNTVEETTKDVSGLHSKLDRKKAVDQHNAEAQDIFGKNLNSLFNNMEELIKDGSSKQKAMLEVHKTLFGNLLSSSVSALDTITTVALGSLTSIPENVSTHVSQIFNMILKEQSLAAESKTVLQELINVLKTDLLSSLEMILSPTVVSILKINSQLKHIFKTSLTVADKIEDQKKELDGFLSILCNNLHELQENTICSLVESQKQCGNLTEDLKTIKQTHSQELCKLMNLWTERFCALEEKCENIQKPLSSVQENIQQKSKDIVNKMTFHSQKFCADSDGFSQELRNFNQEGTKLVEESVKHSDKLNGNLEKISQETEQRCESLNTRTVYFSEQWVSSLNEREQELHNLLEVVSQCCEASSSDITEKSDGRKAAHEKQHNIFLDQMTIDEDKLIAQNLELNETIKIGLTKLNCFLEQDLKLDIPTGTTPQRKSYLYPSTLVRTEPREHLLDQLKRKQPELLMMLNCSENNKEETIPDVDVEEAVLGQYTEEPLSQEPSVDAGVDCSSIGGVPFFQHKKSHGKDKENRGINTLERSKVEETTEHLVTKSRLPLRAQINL

[10] = biological target: T2, Kinesin-like protein KIF11 (Homo sapiens) (UniProt P52732); assay: Binding affinity to human KSP assessed as photoaffinity labeling at Leu295 residue at 240 uM by photo affinity labeling study
T2 sequence (whole entry): T1 sequence (P52732 whole entry)

Row | IC50 (HCT-116 [1]) | IC50 (HCT-116 [2]) | IC50 (HCT-116 [3]) | IC50 (HCT-116 [4]) | IC50 (HCT-116 [5]) | IC50 (HCT-116 [6]) | IC50 (HCT-116 [7]) | IC50 (HCT-116 [8]) | Ki [9] | Activity [10] | Structure (SMILES)
1 | 0.2 nM | 0.18 nM | 0.23 nM | 0.59 nM | 0.31 nM | 0.3 nM | 0.35 nM | 8.7 nM | – | – | CC(=O)O[C@@]12CO[C@@H]1C[C@H](O)[C@@]1(C)C(=O)[C@H](O)C3=C(C)[C@@H](OC(=O)[C@H](O)[C@@H](NC(=O)OC(C)(C)C)c4ccccc4)C[C@@](O)([C@@H](OC(=O)c4ccccc4)[C@H]21)C3(C)C [DOCETAXEL]
2 | 1190 nM | 1 nM | 903 nM | 675 nM | 0.72 nM | 0.46 nM | 87.3 nM | 22 nM | – | – | Cc1ccc(C(=O)N(CCCN)[C@@H](c2nc3cc(Cl)ccc3c(=O)n2Cc2ccccc2)C(C)C)cc1F
3 | – | – | – | – | – | – | – | – | 330 nM | Active | NC(=O)Nc1ccc(-c2ccc(C3(C(F)(F)F)N=N3)cc2)cc1
